Laboratory results taken from ChEMBL document CHEMBL1201862, “PubChem BioAssay data set” (2004).
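In this assay, cells in 96-well plates receive the compound at five concentrations for 48 hours. Endpoints are linearly interpolated between the surrounding concentrations. GI50 marks 50% less growth.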 The source made the active and inactive calls. No stated cut-off is given here; in the data, active = GI50 up to about 1.1 µM and inactive = higher.

What was measured:
Experiment in all cases: NCI tumour cell line growth inhibition, 48 h
UO-31 = system: UO-31
HOP-62 = system: HOP-62
HOP-92 = system: HOP-92
RXF 393 = system: RXF 393
SF-268 = system: SF-268
MDA-MB-435 = system: MDA-MB-435
UACC-62 = system: UACC-62
PC-3 = system: PC-3
CAKI-1 = system: CAKI-1
SF-539 = system: SF-539
SNB-75 = system: SNB-75
COLO 205 = system: COLO 205
MDA-MB-231 = system: MDA-MB-231
EKVX = system: EKVX
LOX IMVI = system: LOX IMVI
SW-620 = system: SW-620
NCI/ADR-RES = system: NCI/ADR-RES
A498 = system: A498
NCI-H522 = system: NCI-H522
NCI-H23 = system: NCI-H23

Measured: GI50

CCOC(=O)c1nc2ccccc2nc1Oc1ccc(C(=O)OC)cc1
inactive: UO-31 > 100 µM | HOP-62 > 100 µM | HOP-92 > 100 µM | RXF 393 > 100 µM | SF-268 > 100 µM | MDA-MB-435 > 100 µM | UACC-62 > 100 µM | PC-3 > 100 µM | CAKI-1 > 100 µM | SF-539 > 100 µM | SNB-75 29 µM | COLO 205 > 100 µM | MDA-MB-231 > 100 µM | EKVX > 100 µM | LOX IMVI > 100 µM | SW-620 > 100 µM | NCI/ADR-RES > 100 µM | A498 > 100 µM

O=C(/C=C/c1ccccc1)CCC1C(=O)c2ccccc2C1=O
inactive: UO-31 > 100 µM | HOP-92 > 100 µM | RXF 393 > 100 µM | NCI-H522 > 100 µM | NCI-H23 > 100 µM | SF-268 > 100 µM | MDA-MB-435 > 100 µM | UACC-62 > 100 µM | PC-3 > 100 µM | CAKI-1 > 100 µM | SF-539 > 100 µM | SNB-75 19.7 µM | COLO 205 64.9 µM | MDA-MB-231 > 100 µM | EKVX > 100 µM | LOX IMVI > 100 µM | SW-620 > 100 µM | NCI/ADR-RES > 100 µM | A498 > 100 µM

COc1ccc(-c2coc3cc(OC)cc(O)c3c2=O)cc1 [4',7-DIMETHOXY-5-HYDROXYGENISTEIN]
inactive: HOP-62 32.4 µM | HOP-92 7.41 µM | RXF 393 27.9 µM | NCI-H522 > 100 µM | NCI-H23 30.8 µM | SF-268 51.3 µM | MDA-MB-435 > 100 µM | UACC-62 > 100 µM | PC-3 > 100 µM | CAKI-1 > 100 µM | SF-539 78.3 µM | SNB-75 > 100 µM | COLO 205 > 100 µM | MDA-MB-231 31 µM | EKVX > 100 µM | LOX IMVI > 100 µM | SW-620 > 100 µM | NCI/ADR-RES > 100 µM | A498 24.8 µM

O=C1CCN/C(=N\C(=O)C(F)(F)F)N1CCc1c[nH]c2ccccc12
inactive: UO-31 > 100 µM | HOP-62 > 100 µM | HOP-92 > 100 µM | RXF 393 > 100 µM | NCI-H522 > 100 µM | NCI-H23 > 100 µM | SF-268 > 100 µM | MDA-MB-435 > 100 µM | UACC-62 > 100 µM | PC-3 > 100 µM | CAKI-1 > 100 µM | SF-539 > 100 µM | COLO 205 > 100 µM | MDA-MB-231 > 100 µM | EKVX > 100 µM | LOX IMVI > 100 µM | SW-620 > 100 µM | NCI/ADR-RES > 100 µM | A498 > 100 µM

Cc1ccc2c(c1)SSSSS2
inactive: UO-31 16.3 µM | HOP-62 20.2 µM | HOP-92 18.5 µM | RXF 393 21.1 µM | NCI-H522 16.3 µM | NCI-H23 20.8 µM | SF-268 25.8 µM | MDA-MB-435 21 µM | UACC-62 18.3 µM | PC-3 22.5 µM | CAKI-1 21 µM | SNB-75 23.8 µM | COLO 205 29.4 µM | MDA-MB-231 25.6 µM | EKVX 23.3 µM | LOX IMVI 16.2 µM | SW-620 15.1 µM | NCI/ADR-RES 25.4 µM | A498 18.9 µM

NC1=NN(c2ccccc2)C2(c3ccncc3C(=O)O)C1C(N)=NN2c1ccccc1 (stereo unspecified)
inactive: UO-31 > 100 µM | HOP-92 > 100 µM | RXF 393 > 100 µM | NCI-H522 > 100 µM | NCI-H23 > 100 µM | SF-268 > 100 µM | MDA-MB-435 > 100 µM | UACC-62 > 100 µM | PC-3 > 100 µM | CAKI-1 > 100 µM | SF-539 > 100 µM | SNB-75 > 100 µM | COLO 205 > 100 µM | MDA-MB-231 > 100 µM | EKVX > 100 µM | LOX IMVI > 100 µM | SW-620 > 100 µM | NCI/ADR-RES > 100 µM | A498 > 100 µM

CN1CC[C@]23c4c5ccc(O)c4O[C@H]2C(O)CC[C@@]3(O)[C@H]1C5 (stereo partly specified)
inactive: UO-31 > 100 µM | HOP-62 > 100 µM | HOP-92 > 100 µM | NCI-H522 > 100 µM | NCI-H23 > 100 µM | SF-268 > 100 µM | MDA-MB-435 > 100 µM | UACC-62 > 100 µM | PC-3 > 100 µM | CAKI-1 > 100 µM | SF-539 > 100 µM | COLO 205 > 100 µM | MDA-MB-231 > 100 µM | EKVX > 100 µM | LOX IMVI > 100 µM | SW-620 > 100 µM | NCI/ADR-RES > 100 µM | A498 > 100 µM
